The source of these data is PubChem BioAssay AID2305 (GlaxoSmithKline (GSK), 2010).

SMILES strings stand for the structures. pIC50: −log10 of the molar value.

What is called pIC50 is −log10 of the IC50, conventionally taken in molar units. The low end stands for a high IC50, the high end for a low IC50.

The experiment has as its system P. falciparum 3D7 growth, pLDH absorbance. The experiment in a line: blood-stage malaria parasite growth potency – strain 3D7, dose response (AID 2305).
Turning to `Cc1cc(N)nc2ccc(-c3ccc(CCN)cc3)cc12`, the pIC50 is 6.21.
On to `COc1cccc2c(C)cc(NCc3ccc(Cl)cc3)nc12`, for which the pIC50 was 6.07.
In the case of `O=C1CCCN1CCCNCc1ccc(-c2cccc(-c3nc4ccccc4[nH]3)c2)cc1`, the pIC50 was 5.99.
`C=CCc1ccccc1OCC(O)CN(C1CCCCC1)C1CCCCC1` (centres undefined): the pIC50 is 6.09.
`Cc1nc(-c2nc(NCc3ccncc3)ncc2-c2ccsc2)sc1C` showed a pIC50 of 6.00.
Consider `Cc1cccc2[nH]c(-c3ccc(-c4cccc(CNC5CCN(C)CC5)c4)s3)nc12`, for which the pIC50 was 6.74.
The molecule `O=C(Nc1cccc(C(F)(F)F)c1)c1ccc(S(=O)(=O)NC2CCN(CC3CCCCC3)C2)cc1` (centres undefined) gave a pIC50 of 6.10.
Regarding `COC(=O)[C@@H](NC(=O)[C@H](Cc1ccc(OC)c(OC)c1)Nc1ccc(C#N)c2ccccc12)c1ccc(O)cc1`, the pIC50 is 6.12.
The result for `COc1ccccc1Cc1c(C)nc2nc(N)nc(N)c2c1C` reads 6.24; that for `CCCCCCNC(=O)C1Cc2c([nH]c3ccccc23)C2(CCN(CCc3ccccc3)CC2)N1` (centres undefined), 5.94.
On to `O=C(/C=C/c1ccc(Cl)c(Cl)c1)N1CCC(CN2CCC(c3c(-c4ccccc4)[nH]c4ccccc34)CC2)CC1`, for which the pIC50 is 6.47.
For `Cc1ncccc1C(=O)Nc1cccc(-c2cccc(-c3nc4c(C)cccc4[nH]3)c2)c1` the value was 6.02; for `N#Cc1ccc2[nH]cc(CN3CCC4(CC3)CN(CCNCc3ccccc3)C(=O)O4)c2c1`, 5.94; for `COc1ccc(S(=O)(=O)N(c2cc(Br)cc3c2OCC3)S(=O)(=O)c2ccc(OC)c(N3CCN(C)CC3)c2)cc1N1CCN(C)CC1`, 5.93.
Molecule `COc1ccccc1C1CCN(C2CCC(NC(=O)/C=C/c3ccc(C(F)(F)F)cc3)CC2)CC1` (centres undefined) gave a pIC50 of 5.94.
The molecule `CCC1CN2CCc3c([nH]c4ccccc34)C2CC1CC1=NCCc2c1[nH]c1ccccc21` (centres undefined) had a pIC50 of 6.13.
For the molecule `Cc1cc(N[C@@H](Cc2ccccc2)C(=O)NC2CCCC2)nc(Nc2ccccc2)n1`, the pIC50 was 6.08.
`Cc1nn(CC(C)C)c2sc(C(=O)N3CCN(S(=O)(=O)c4ccc(C#N)cc4)CC3)cc12`: the pIC50 is 6.13.
In turn, `Cc1cc(NN=CC=Cc2ccccc2)c2cc(F)ccc2n1` gave a pIC50 of 6.14.
With `COc1ccc(NC(=O)[C@H](CC(C)C)Nc2cc(C)nc(NCCc3ccccc3OC)n2)cc1`, the pIC50 is 6.00.
`CN(C)S(=O)(=O)n1ncc2c3c(N)nc(N)nc3ccc21` showed a pIC50 of 6.74.
For `O=C(CN1CCN(C(C(=O)Nc2cc(C(F)(F)F)ccc2Cl)c2ccccc2)CC1)NC1CC1` (centres undefined) the value was 6.36; for `NCc1ccc(-c2ccccc2CNC2CCN(Cc3ccccc3)CC2)cc1`, 6.11; for `CCCCCCCc1c(C)[nH]c2cc(OC)ccc2c1=O`, 7.22.
The molecule `COc1ccc2nccc(CCC3(O)CCC(NCc4cc5c(cc4F)SCC(=O)N5)CC3)c2c1` (centres undefined) gave a pIC50 of 6.17.
On to `CCN(CCCN1CCCCC1)c1cc(C)nc(Nc2cccc3c2CCCC3)n1`, for which the pIC50 was 5.99.
As for `CC(=NO)C1=C(O)C(c2ccccc2)N(c2ccccc2)C1=O` (centres undefined), the pIC50 was 6.15.
`CCCCCOc1ccc(C(O)C(CCC(CN2CCCCCC2)C(O)c2ccc(OCCCCC)cc2)CN2CCCCCC2)cc1` (centres undefined) had a pIC50 of 6.11.
`Cc1cc(NC2CCN(Cc3ccccc3)CC2)nc(NCCCCc2ccccc2)n1`: the pIC50 is 6.42.
For `CC(C)NCc1cccc(-c2ccc(NC(=O)c3ccc(F)cc3)cc2)c1`, the pIC50 is 6.07.
For `Clc1ccc(CNCCCCCCCNCc2ccc(Cl)c(Cl)c2)cc1Cl` the value was 6.43.
In turn, `COc1ccc(NC(=O)NC2CCN(c3ccnc4cc(Cl)ccc34)C2)cc1` (centres undefined) had a pIC50 of 7.00.
On to `CCNc1cc(CC)nc(Nc2ccc(C)cc2)n1`, for which the pIC50 was 6.07.
As for `CNC(=O)c1ccccc1Nc1cc(Nc2cc(OC)ccn2)ncc1Cl`, the pIC50 was 6.03.
For the molecule `NC12CC3CC(CC(C3)C1)C2`, the pIC50 is 6.80.
`CN(C)CCN(C)Cc1ccc(-c2ccc(NC(=O)c3cccc(C#N)c3)cc2)cc1` had a pIC50 of 5.90.
For `CCOc1cc(Cl)c(C(C)NC(=O)c2cccc(OC)c2)cc1OCC` (centres undefined), the pIC50 is 6.02.
For the molecule `COc1cc(CS(C)(=O)=O)ccc1Nc1nccc(-c2c(-c3cccc(NC(=O)c4c(F)cccc4F)c3)nn3ccccc23)n1`, the pIC50 is 6.01.
In turn, `Cc1cccc2[nH]c(-c3cccc(-c4cccc(NC(=O)c5ccncc5)c4)c3)nc12` had a pIC50 of 6.62.
As to `O=C(NCCCCN1CCN(c2cccc3ccccc23)CC1)c1ccc(NC(=O)c2ccc(Cl)cc2)cc1`, the pIC50 was 6.44.
With `CCOC(=O)c1c(C)noc1Nc1cccc(C)c1C`, the pIC50 is 6.38.
Molecule `CCN1CCN(c2cc(C)c3cc(NC(=O)c4cccc(OC)c4)ccc3n2)CC1` had a pIC50 of 6.10.
In turn, `CCN(CCCN1CCCCC1)c1cc(C)nc(Nc2cc(F)cc(F)c2)n1` showed a pIC50 of 6.24.
Turning to `O=C(Nc1cccc(-c2nn3ncccc3c2-c2ccnc(Nc3ccccc3)n2)c1)c1c(F)cccc1F`, the pIC50 is 6.14.
